Test results taken from patent US8609666B2, “2-morpholino-pyrido[3,2-D]pyrimidines” (Merck Serono SA, priority 2009, dated 2013).
pIC50: −log10 of the molar value.

Columns and labels:
[1] = tested on: Human recombinant GST-PI3K; assay: PI3K induced-lipid phosphorylation scintillation proximity assay (neomycin-coated SPA beads); assay type: biochemical; conditions: amount necessary to achieve 50% inhibition of PI3K; 120 min at room temperature
Excerpt: The efficacy of compounds of the invention in inhibiting the PI3K induced-lipid phosphorylation may be tested in the following binding assay. The assay combines the scintillation proximity assay technology (SPA, Amersham) with the capacity of neomycin (a polycationic antibiotic) to bind phospholipids with high affinity and specificity. The Scintillation Proximity Assay is based on the properties of weakly emitting isotopes (such as ^3H, ^125I, ^33P). Coating SPA beads with neomycin allows the detection of phosphorylated lipid substrates after incubation with recombinant PI3K and radioactive ATP in the same well, by capturing the radioactive phospholipids to the SPA beads through their specific binding to neomycin. To a 96 wells MTP containing 10 μl of the test compound of Formula (I) (solubilized in 10% DMSO; to yield a concentration of 100, 25, 5.0, 1.25, 0.312, 0.078, 0.0195, 0.00488, 0.00122 and 0.0003 μM of the test compound), the following assay components are added: 1) 10 μL of lipid micelles 2) […] of Kinase buffer ([^33P]γATP162 μM/300 nCi, MgCl2 2.5 mM, DTT 2.5 mM, Na3VO4 25 μM in Hepes 40 mM, pH 7.4) and 3) 10 μL (100 ng) of Human recombinant GST-PI3K (in Hepes 40 mM, pH 7.4, ethylenglycol 4%). After incubation at room temperature for 120 minutes, with gentle agitation, the reaction is stopped by addition of 200 μL of a solution containing 250 μg of neomycin-coated PVT SPA beads, ATP 60 mM and EDTA 6.2 mM in PBS. The assay is further incubated at room temperature for 60 minutes with gentle agitation to allow binding of phospholipids to neomycin-SPA beads. After precipitation of the neomycin-coated PVT SPA beads for 5 minutes at 1500×g, radioactive PtdIns(3)P is quantified by scintillation counting in a Wallac MicroBeta™ plate counter. The values indicated in Table I below refer to the IC50 (μM) with respect to PI3K, i.e. the amount necessary to achieve 50% inhibition of said target. Said values show a considerable inhibitory potency of pyridopyrimidine compounds with regard to PI3K.

CK2 protein kinase = conditions: Fruman et al., 1998; cited from earlier work

`O=C(O)c1cc(Cl)c2nc(N3CCOCC3)nc(-c3ccccc3)c2n1` [Example 64, 8-Chloro-2-morpholin-4-yl-4-phenylpyrido[3,2-d]pyrimidine-6-carboxylic acid] gave a pIC50 [1] of 6.17.

Compound `COCCN(C)c1cc(C(=O)O)nc2c(-c3cc(F)cc(F)c3)nc(N3CCOCC3)nc12` [Example 65, 4-(3,5-Difluorophenyl)-8-[(2-methoxyethyl)(methyl)amino]-2-morpholin-4-ylpyrido[3,2-d]pyrimidine-6-carboxylic acid] has a pIC50 [1] of 5.89.

Work on `CN(C)c1cc(C(=O)O)nc2c(-c3cccc(C#N)c3)nc(N3CCOCC3)nc12` [Example 66, 4-(3-Cyanophenyl)-8-(dimethylamino)-2-morpholin-4-ylpyrido[3,2-d]pyrimidine-6-carboxylic acid] yielded a pIC50 [1] of 5.96.

With `CS(=O)(=O)N1CCN(c2cc(C(=O)O)nc3c(-c4ccccc4)nc(N4CCOCC4)nc23)CC1` [Example 67, 8-[4-(Methylsulfonyl)piperazin-1-yl]-2-morpholin-4-yl-4-phenylpyrido[3,2-d]pyrimidine-6-carboxylic acid] the pIC50 [1] was 7.52.

In the case of `O=c1cc(N2CCOCC2)oc2c(-c3ccccc3)cccc12` [LY294002], the pIC50 (CK2 protein kinase) is given as 5.00 to 5.30.
